Where two headings read alike, the source gives them in different places.
Assays:
[1] = Aspirin-induced gastric damage; assay type: in vivo, rat; conditions: 15 mg/kg PO
Method: Aspirin-induced gastric damage was assessed in groups of 10 rats each.
All animals were fasted for 24 hours before and throughout the experiment. Drug or vehicle was given 10 minutes before an oral dose of 1 mL of a 45-mg/mL suspension of aspirin in 0.5% carboxymethylcellulose (CMC).
The animals were sacrificed five hours after aspirin administration and the stomachs removed and opened for examination.

[2] = Palatable Diet Feeding assay; assay type: in vivo, rat; conditions: dose producing 50% of the maximum effect possible (zero food intake)
Method: In the Palatable Diet Feeding assay, adult male Hooded Lister rats weighing between 200-400 g were housed individually and trained to eat a palatable diet. This diet consisted of Nestles sweetened condensed milk, powdered rat food and rat water which when blended together set to a firm consistency. […] The intake of palatable diet was measured by weighing the food container before and after the 30-minute access period (limits of accuracy 0.1 g). Care was taken to collect and correct for any spillage of the diet. Rats had free access to pellet food and water except during the 30-minute test period.
After the training period, dose-response curves were constructed for CCK8 and several representative compounds of the present invention (n=8-10 rats per dose level).

[3] = tested on: pentagastrin stimulated gastric acid secretion; experiment: Pentagastrin stimulated gastric acid secretion (Ghosh and Schild perfused stomach); assay type: in vivo, rat; conditions: 1 nmole/kg pentagastrin
Method: They were anesthetized with urethane (1.5 g/kg IP) and the trachea cannulated to aid spontaneous respiration. The stomach was perfused continuously using a modification of the original method of Ghosh & Schild in "Continuous recording of acid secretion in the rat", Br. J. Pharmac. […] The fluid was propelled by a roller pump (Gilson, Minipuls 2), through heating coils to bring its temperature to 37°±1° C. The perfusion fluid was collected by the fundic collecting funnel and passed to a pH electrode connected to a Jenway pH meter (PHM6). An output was taken from the pH meter to a Rikadenki chart recorder for the on-line recording of the pH of the gastric perfusate.
Pentagastrin was stored as a frozen aliquot and diluted to the required concentrations with sterile 0.9% w/v NaCl. Novel compounds were dissolved in sterile 0.9% w/v NaCl on the day of the experiment. Drugs were administered IV through a cannulated jugular vein as a bolus in a dose volume of 1 mL/kg washed in with 0.15 mL 0.9% w/v NaCl. Basal pH was allowed to stabilize before administration of compounds was begun.

Central CCK Receptors = target: T1, Central CCK Receptors (Mus musculus, UniProt P56481); experiment: Binding to central CCK receptors (tritiated-pentagastrin displacement, cerebral cortical membranes)
T1 sequence (P56481 1-453): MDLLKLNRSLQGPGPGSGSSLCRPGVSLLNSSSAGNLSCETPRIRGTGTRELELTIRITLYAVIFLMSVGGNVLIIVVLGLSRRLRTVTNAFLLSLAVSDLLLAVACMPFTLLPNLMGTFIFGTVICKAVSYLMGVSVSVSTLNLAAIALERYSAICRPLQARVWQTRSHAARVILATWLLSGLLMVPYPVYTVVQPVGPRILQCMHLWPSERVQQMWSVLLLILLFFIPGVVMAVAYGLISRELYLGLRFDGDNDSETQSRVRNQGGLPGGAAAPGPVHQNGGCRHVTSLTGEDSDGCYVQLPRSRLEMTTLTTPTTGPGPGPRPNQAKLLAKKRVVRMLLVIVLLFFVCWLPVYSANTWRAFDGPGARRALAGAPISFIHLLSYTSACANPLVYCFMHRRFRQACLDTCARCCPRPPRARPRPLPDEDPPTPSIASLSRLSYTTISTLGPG
Method: The biological activity of compounds of the present invention was evaluated employing an initial screening test which rapidly and accurately measured the binding of the tested compound to known CCK receptor sites.
The resulting suspension was centrifuged, the supernate was discarded, and the pellet was washed by resuspension in Tris-HCl buffer followed by recentrifugation.
In saturation studies, cerebral cortical membranes were incubated at 23° C. for 120 minutes in a final volume of 500 μliter of Hepes incubation buffer (pH 7.2) together with 0.2-20 nM tritiated-pentagastrin (Amersham International, England).
In each case, the nonspecific binding was defined as that persisting in the presence of the unlabeled octapeptide CCK26-33 (10^-6 M).
Following incubation, radioactivity bound to membranes was separated from that free in solution by rapid filtration through Whatman GF/B filters and washed three times with 4 mL of ice cold Tris-HCl buffer.
The specific binding to CCK receptor sites was defined as the total bound tritiated-pentagastrin minus the amount of tritiated-pentagastrin bound in the presence of 10^-6 octapeptide, CCK26-33.
The inhibition constant (Ki) of the test compound was then calculated according to the Cheng-Prusoff equation: [formula] where [L] is the concentration of radiolabel and Ka is the equilibrium dissociation constant.

[4] = Light/dark exploration test (anxiolytic activity); assay type: in vivo, mouse
Method: In FIG. 2 the number of mice was 5 and the pretreatment time was 40 minutes. The compound was given p.o. in 0.1, 1, and 10 mg/kg doses.
The apparatus was an open-topped box, 45 cm long, 27 cm wide, and 27 cm high, divided into a small (2/5) area and a large (3/5) area by a partition that extended 20 cm above the walls. There was a 7.5×7.5 cm opening in the partition at floor level. The small compartment was painted black and the large compartment white. The floor of each compartment was marked into 9 cm squares. The white compartment was illuminated by a 100-watt tungsten bulb 17 cm above the box and the black compartment by a similarly placed 60-watt red bulb. The laboratory was illuminated with red light.
All tests were performed between 13 hundred hours, 0 minutes and 18 hundred hours, 0 minutes. Each mouse was tested by placing it in the center of the white area and allowing it to explore the novel environment for five minutes. Its behavior was recorded on videotape and the behavioral analysis was performed subsequently from the recording. Five parameters were measured: the latency to entry into the dark compartment, the time spent in each area, the number of transitions between compartments, the number of lines crossed in each compartment, and the number of rears in each compartment.
Drugs were dissolved in water or saline and administered either subcutaneously, intraperitoneally, or by mouth (PO) via a stomach needle.

[5] = read-out: Binding to Central CCK Receptors Ki, displacement of 2 nM tritiated-pentagastrin, mouse cerebral cortical membranes

| SMILES | Inhibition of Feeding on Rat Palatable Diet Assay I.P. MPE50 [2] | Ki (Central CCK Receptors; [5]) | further results |
| --- | --- | --- | --- |
| CNC(=C[N+](=O)[O-])NCCSCc1ccc(CN(C)C)o1 [ranitidine, reference compound] | – | – | inhibition of ulcer formation [1]: 74%; ulcer score ([1]; ±SD, saline control 12.1±6.85): 3.2±2.35 |
| CC(Cc1c[nH]c2ccccc12)(NC(=O)OC1C2CC3CC(C2)CC1C3)C(=O)NC(COC(=O)CCC(=O)O)Cc1ccccc1 (stereo not drawn) [Example 16, [R-(R*,S*)]-2-[[3-(1H-indol-3-yl)-2-methyl-1-oxo-2-[[(tricyclo[3.3.1.1^3,7 dec-2-yloxy)carbonyl]amino]propyl]amino]-3-phenylpropyl butanedioate] | 10.5 mg/kg | 30 nM | reversibility of the antagonism [3]: reversible with full recovery of the response to pentagastrin; effect on stimulation of gastric acid secretion produced by pentagastrin ([3]; compound IV, anesthetized rat): attenuated; gastric acid secreted in response to pentagastrin after compound ([3]; cumulative dose of 1.1 μmole/kg, initial pentagastrin response 254 μmoles/1 H^+): 128 μmoles/1 H^+ |
| CC(Cc1c[nH]c2ccccc12)(NC(=O)OC1C2CC3CC(C2)CC1C3)C(=O)NC(CO)Cc1ccccc1 (stereo not drawn) [Example 15, [R-(R*,S*)]-Tricyclo[3.3,1.1^3,7]dec-2-yl-[2-[[1-(hydroxymethyl)-2-phenylethyl]amino]-1-(1H-indol-3-ylmethyl)-1-methyl-2-oxoethyl]carbamate] | 15.7 mg/kg | 26 nM | – |
| C[C@](Cc1c[nH]c2ccccc12)(NC(=O)OC1C2CC3CC(C2)CC1C3)C(=O)NC[C@H](NC(=O)/C=C/C(=O)O)c1ccccc1 (relative stereo) [Example 22, [R-[R*,R*-(E)]]-4-[[2-[[3-(1H-indol-3-yl)-2-methyl-1-oxo-2-[[(tricyclo[3.3.1.1^3,7]dec-2-yloxy)carbonyl]amino]propyl]amino]-1-pbenylethyl]amino]-4-oxo-2-butenoic acid] | – | – | time spent in the light area of the test box ([4]; SC): significantly (p <0.01) increased the time spent in the light area; anxiolytic activity by the subcutaneous route ([4]; subcutaneous): active |
| CC(Cc1c[nH]c2ccccc12)(NC(=O)OC1CCCCC1Cl)C(=O)NC(COC(=O)CCC(=O)O)Cc1ccccc1 (stereo not drawn) [Example 4, 2-[[2-[[[2-chlorocyclohexyl)oxy]-carbonyl]amino]-3-(1H-indol-3-yl)-2-methyl-1-oxo-propyl]amino]-3-phenylpropyl butanedioate] | > 20 mg/kg | 170 nM | – |
| CC(Cc1c[nH]c2ccccc12)(NC(=O)O[C@@H]1CCCC[C@H]1Cl)C(=O)NCCc1ccccc1 (mixture of isomers) [Example 2, (±)-Trans-2-chlorocyclohexyl [1-(1H-indol-3-ylmethyl)-1-methyl-2-oxo-2-[(2-phenylethyl)amino]ethyl]carbamate] | 9.6 mg/kg | – | Ki (Central CCK Receptors): 3150 nM |
| CN1C(=O)CN=C(c2ccccc2)c2cc(Cl)ccc21 [Diazepam, reference compound] | – | – | effect on crossings compared with compound (20) ([4]; 0.25 mg/kg IP, same experiment): effect identical to compound (20) |
| CC(Cc1c[nH]c2ccccc12)(NC(=O)OC1C2CC3CC(C2)CC1C3)C(=O)NCC(OC(=O)CCC(=O)O)c1ccccc1 (stereo not drawn) [Example 17, 2-[[3-(1H-indol-3-yl)-2-methyl-1-oxo-2-[[(tricyclo-[3.3.1.1.^3,7]dec-2-yloxy)carbonyl]amino]propyl]amino]-1-phenylethyl butanedioate] | 13.1 mg/kg | 63 nM | – |

— US5622983A, “N-substituted cycloalkyl and polycycloalkyl α-substituted Trp-Phe- and phenethylamine derivatives” (Warner-Lambert Company, priority 1995, dated 1997)
